In patent US20260158011A1 (Achieve Life Sciences, Inc., priority 2023, published 2026):
Like-named read-outs stand apart in the source and are kept apart here.

Test system: adult daily cigarette smokers
Conditions: pooled blinded
[1] = drug reduction Day 35, first Insomnia listing
[2] = drug reduction Day 35, second Insomnia listing
[3] = follow up period, start day 86, resolution day 87
[4] = follow up period, start day 87, resolution day 90
[5] = follow up period, start day 87, resolution day 96
[6] = follow up period, start day 102, resolution day 105
[7] = follow up period, start day 104, resolution day 105
[8] = follow up period, start day 107, resolution day 111
[9] = follow up period, start day 112, resolution day 113
[10] = follow up period, start day 115, resolution day 120
[11] = follow up period, start day 119, resolution day 139
[12] = follow up period, start day 146, no resolution day
[13] = follow up period, start day 148, resolution day 152
[14] = follow up period, start day 151, resolution day 161

Protocol: Subjects are randomized to one of the three arms A, B, or C. In Arm A, subjects are treated with a placebo for 12 weeks plus behavioral support. In Arm B, subjects are treated with 3.0 mg cytisinicline TID for 6 weeks followed by a placebo for 6 weeks plus behavioral support. In Arm C, subjects are treated with 3.0 mg cytisinicline TID for 12 weeks plus behavioral support.
The safety objectives of the study will be the following: • To evaluate the safety profile of 3.0 mg TID cytisinicline compared to placebo (e.g., Arm B versus Arm A and Arm C versus Arm A); • To compare the safety profiles of Arm B subjects versus Arm C subjects with respect to adverse events occurring after Week 6 on the study.
The population for this study will be male or female adults who are daily cigarette smokers, intending to quit smoking, and are willing to set a quit date that is within 5 to 7 days of the start of treatment. Study treatment will start the day after randomization.
Safety assessments at clinic visits will occur on Day 2 and Day 7 during Week 1 and then weekly throughout the Treatment Period. Laboratory hematology and chemistry assessments will be made on Day 7, Week 6, and Week 12 (End of Treatment “EOT”) during the Treatment Period. Any ongoing adverse events at Week 12 will be followed until resolved or determined to be chronic. The end of study is defined as the last follow-up visit (up to the Week 24 visit) for the last subject.
The Treatment Period will begin on the day after randomization. Study treatment will be blinded, and subjects will take one study tablet three times during the day, approximately 5 hours apart. Subjects randomly assigned to Arm A will take one placebo tablet at each dosing per day for 12 weeks. Arm B subjects will take one cytisinicline tablet at each dosing per day for the first 6 weeks followed by one placebo tablet at each dosing per day for the last 6 weeks. Arm C subjects will take one cytisinicline tablet at each dosing per day for 12 weeks.
Laboratory (hematology and chemistry) evaluations will be performed at the Week 1, Week 6, and Week 12 clinic visits using a central laboratory.
Safety will be assessed by consideration of all adverse events reported by or elicited from the subject and abnormalities detected on hematology and serum chemistry tests. Worsening of other pre-existing medical conditions and any changes to concomitant medications/treatments will also be taken into account in this evaluation.
Routine laboratory safety samples will be analyzed at screening and at clinic visits as identified in Table 15 for each subject by a central laboratory. […] Clinically significant abnormalities occurring during the study will be recorded on the AE page. The reference ranges for laboratory parameters will also be entered in the database and filed in the Investigator site file.
Safety assessments will include reported adverse events, laboratory test results, and vital signs. Safety variables will be summarized for the Safety Analysis Set (SAS), defined as all randomized subjects who take at least one dose of study drug.
Adverse events (AEs) will be coded using the MedDRA dictionary. Coding will include system organ class (SOC) and preferred term (PT). All verbatim descriptions and coded terms will be listed for all AEs.

With O=c1cccc2n1C[C@@H]1CNC[C@H]2C1 [cytisine, (−)-Cytisine] the “Dose reduction for Insomnia: Outcome” value [1] was “Recovered/Resolved”, the “Dose reduction for Insomnia: Relatedness” value [1] was “Probable” and the “Dose reduction for Insomnia: Severity” value [1] was “Moderate”. The “Dose reduction for Burning Eyes: Outcome” value (drug reduction Day 35) was “Recovered/Resolved”, the “Dose reduction for Burning Eyes: Relatedness” value (drug reduction Day 35) was “Possible” and the “Dose reduction for Burning Eyes: Severity” value (drug reduction Day 35) was “Moderate”. For the same molecule, the “Dose reduction for Headache: Outcome” value (drug reduction Day 35) was “Recovered/Resolved”, the “Dose reduction for Headache: Relatedness” value (drug reduction Day 35) was “Possible” and the “Dose reduction for Headache: Severity” value (drug reduction Day 35) was “Moderate”. For the same molecule, the “Dose reduction for Nausea: Outcome” value (drug reduction Day 35) was “Recovered/Resolved”, the “Dose reduction for Nausea: Relatedness” value (drug reduction Day 35) was “Possible” and the “Dose reduction for Nausea: Severity” value (drug reduction Day 35) was “Moderate”. The “Dose reduction for Sinus Congestion: Outcome” value (drug reduction Day 35) was “Recovered/Resolved”, the “Dose reduction for Sinus Congestion: Relatedness” value (drug reduction Day 35) was “Possible” and the “Dose reduction for Sinus Congestion: Severity” value (drug reduction Day 35) was “Moderate”. For the same molecule, the “Dose reduction for Sinus Pressure: Outcome” value (drug reduction Day 35) was “Recovered/Resolved”, the “Dose reduction for Sinus Pressure: Relatedness” value (drug reduction Day 35) was “Possible” and the “Dose reduction for Sinus Pressure: Severity” value (drug reduction Day 35) was “Moderate”. The “Dose reduction for Insomnia: Outcome” value [2] was “Recovered/Resolved”, the “Dose reduction for Insomnia: Relatedness” value [2] was “Possible” and the “Dose reduction for Insomnia: Severity” value [2] was “Moderate”. The “Dose reduction for Difficulty Falling Asleep: Outcome” value (drug reduction Day 42) was “Recovered/Resolved”, the “Dose reduction for Difficulty Falling Asleep: Relatedness” value (drug reduction Day 42) was “Possible” and the “Dose reduction for Difficulty Falling Asleep: Severity” value (drug reduction Day 42) was “Moderate”. For the same molecule, the “Dose reduction for Restless Leg Syndrome: Outcome” value (drug reduction Day 49) was “Recovered/Resolved”, the “Dose reduction for Restless Leg Syndrome: Relatedness” value (drug reduction Day 49) was “Possible” and the “Dose reduction for Restless Leg Syndrome: Severity” value (drug reduction Day 49) was “Moderate”. The “Dose reduction for Memory Loss: Outcome” value (drug reduction Day 55) was “Recovered/Resolved”, the “Dose reduction for Memory Loss: Relatedness” value (drug reduction Day 55) was “Possible” and the “Dose reduction for Memory Loss: Severity” value (drug reduction Day 55) was “Moderate”. For the same molecule, the “Dose reduction for Bilateral Foot Swelling: Outcome” value (drug reduction Day 58) was “Recovered/Resolved”, the “Dose reduction for Bilateral Foot Swelling: Relatedness” value (drug reduction Day 58) was “Possible” and the “Dose reduction for Bilateral Foot Swelling: Severity” value (drug reduction Day 58) was “Mild”. For the same molecule, the “Dose reduction for Facial Swelling (Forehead Area): Outcome” value (drug reduction Day 58) was “Recovered/Resolved”, the “Dose reduction for Facial Swelling (Forehead Area): Relatedness” value (drug reduction Day 58) was “Possible” and the “Dose reduction for Facial Swelling (Forehead Area): Severity” value (drug reduction Day 58) was “Mild”. For the same molecule, the “Dose reduction for Right Hand Swelling: Outcome” value (drug reduction Day 58) was “Recovered/Resolved”, the “Dose reduction for Right Hand Swelling: Relatedness” value (drug reduction Day 58) was “Possible” and the “Dose reduction for Right Hand Swelling: Severity” value (drug reduction Day 58) was “Mild”. The “Dose reduction for Headache: Outcome” value (drug reduction Day 63) was “Recovered/Resolved”, the “Dose reduction for Headache: Relatedness” value (drug reduction Day 63) was “Possible” and the “Dose reduction for Headache: Severity” value (drug reduction Day 63) was “Mild”. The “Serious adverse event Post Surgical Complications: Causality” value [3] was “Not”, the “Serious adverse event Post Surgical Complications: Outcome” value [3] was “Fatal” and the “Serious adverse event Post Surgical Complications: Severity/Intensity” value [3] was “Severe”. The “Serious adverse event Worsening Fatigue: Causality” value [4] was “Not”, the “Serious adverse event Worsening Fatigue: Outcome” value [4] was “Recovered/Resolved” and the “Serious adverse event Worsening Fatigue: Severity/Intensity” value [4] was “Moderate”. For the same molecule, the “Serious adverse event Coronary Atherosclerosis: Causality” value [5] was “Not”, the “Serious adverse event Coronary Atherosclerosis: Outcome” value [5] was “Recovered/Resolved” and the “Serious adverse event Coronary Atherosclerosis: Severity/Intensity” value [5] was “Severe”. The “Serious adverse event Acute Cholecystitis: Causality” value [6] was “Not”, the “Serious adverse event Acute Cholecystitis: Outcome” value [6] was “Recovered/Resolved” and the “Serious adverse event Acute Cholecystitis: Severity/Intensity” value [6] was “Moderate”. For the same molecule, the “Serious adverse event Transient Ischemic Attack: Causality” value [7] was “Not”, the “Serious adverse event Transient Ischemic Attack: Outcome” value [7] was “Recovered/Resolved” and the “Serious adverse event Transient Ischemic Attack: Severity/Intensity” value [7] was “Severe”. For the same molecule, the “Serious adverse event Perforated Bowel: Causality” value [8] was “Not”, the “Serious adverse event Perforated Bowel: Outcome” value [8] was “Recovered/Resolved” and the “Serious adverse event Perforated Bowel: Severity/Intensity” value [8] was “Severe”. For the same molecule, the “Serious adverse event Abscess on Right Groin Area: Causality” value [9] was “Not”, the “Serious adverse event Abscess on Right Groin Area: Outcome” value [9] was “Recovered/Resolved” and the “Serious adverse event Abscess on Right Groin Area: Severity/Intensity” value [9] was “Severe”. The “Serious adverse event COPD Exacerbation: Causality” value [10] was “Not”, the “Serious adverse event COPD Exacerbation: Outcome” value [10] was “Recovered/Resolved” and the “Serious adverse event COPD Exacerbation: Severity/Intensity” value [10] was “Severe”. For the same molecule, the “Serious adverse event Sepsis: Causality” value [10] was “Unlikely”, the “Serious adverse event Sepsis: Outcome” value [10] was “Recovered/Resolved” and the “Serious adverse event Sepsis: Severity/Intensity” value [10] was “Severe”. The “Serious adverse event Pneumonia: Causality” value [11] was “Not”, the “Serious adverse event Pneumonia: Outcome” value [11] was “Recovered/Resolved” and the “Serious adverse event Pneumonia: Severity/Intensity” value [11] was “Severe”. The “Serious adverse event Acute Kidney Injury Superimposed to Chronic Kidney Disease: Causality” value [12] was “Unlikely”, the “Serious adverse event Acute Kidney Injury Superimposed to Chronic Kidney Disease: Outcome” value [12] was “Not Recovered/Not” and the “Serious adverse event Acute Kidney Injury Superimposed to Chronic Kidney Disease: Severity/Intensity” value [12] was “Severe”. For the same molecule, the “Serious adverse event Ureterolithiasis: Causality” value [12] was “Unlikely”, the “Serious adverse event Ureterolithiasis: Outcome” value [12] was “Not Recovered/Not” and the “Serious adverse event Ureterolithiasis: Severity/Intensity” value [12] was “Severe”. For the same molecule, the “Serious adverse event Pneumonia: Causality” value [13] was “Not”, the “Serious adverse event Pneumonia: Outcome” value [13] was “Recovered/Resolved” and the “Serious adverse event Pneumonia: Severity/Intensity” value [13] was “Severe”. For the same molecule, the “Serious adverse event Dyspnea: Causality” value [14] was “Unlikely” and the “Serious adverse event Dyspnea: Outcome” value [14] was “Recovered/Resolved”.
